The values that follow come from patent US8680159B2, “Bradykinin 1 receptor modulating compounds” (Gruenenthal GmbH, priority 2010, dated 2014).

Experiment [1] has as its target T1, human B1R receptor (CHO K1 cells stably transfected with the human B1R gene) (Homo sapiens, UniProt P46663).
T1 construct: expressed in transfected cells; host or cells: CHO K1 cells (Chinese hamster ovary), stably transfected
T1 sequence (P46663 1-353): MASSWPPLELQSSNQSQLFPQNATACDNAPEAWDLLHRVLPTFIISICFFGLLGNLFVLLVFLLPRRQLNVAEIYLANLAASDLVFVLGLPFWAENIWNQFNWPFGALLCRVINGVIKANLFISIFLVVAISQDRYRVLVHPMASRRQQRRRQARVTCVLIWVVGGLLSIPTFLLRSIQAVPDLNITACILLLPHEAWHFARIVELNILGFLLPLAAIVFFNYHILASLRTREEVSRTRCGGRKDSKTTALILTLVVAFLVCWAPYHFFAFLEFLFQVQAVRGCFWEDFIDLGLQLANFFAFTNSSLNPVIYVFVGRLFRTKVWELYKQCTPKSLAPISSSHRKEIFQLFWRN
Kind of experiment: Functional study on the bradykinin receptor 1 (B1R), Ca2+ fluorescence (Fluo-4) FLIPR/Novostar assay, hB1R cells. It is filed as cell-based. The gist of the method: (§1)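 Test compounds (10 μM) were added first and the Ca2+ rise was scored as % activation against Lys-Des-Arg9-bradykinin (≥50 nM, human) or Des-Arg9-bradykinin (≥1 μM, rat). After 6-20 min, the matching agonist was given at its EC80, and % inhibition relative to maximal achievable inhibition was calculated.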

For experiment [2], the target named is T2, B1R receptor of the rat (CHO K1 cells stably transfected with the B1R gene of the rat) (Rattus norvegicus, UniProt P97583).
T2 construct: expressed in transfected cells; host or cells: CHO K1 cells (Chinese hamster ovary), stably transfected
T2 sequence (P97583 1-337): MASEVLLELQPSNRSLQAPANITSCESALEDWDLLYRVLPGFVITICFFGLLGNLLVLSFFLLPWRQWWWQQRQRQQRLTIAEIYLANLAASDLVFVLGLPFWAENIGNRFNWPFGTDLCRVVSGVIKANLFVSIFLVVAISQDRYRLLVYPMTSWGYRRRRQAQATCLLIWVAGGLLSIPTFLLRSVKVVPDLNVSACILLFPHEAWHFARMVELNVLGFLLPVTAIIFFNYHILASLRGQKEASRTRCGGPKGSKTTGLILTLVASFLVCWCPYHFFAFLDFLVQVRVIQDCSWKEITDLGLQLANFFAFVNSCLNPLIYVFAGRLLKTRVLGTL
As to the kind of experiment: Functional study on the bradykinin receptor 1 (B1R), Ca2+ fluorescence (Fluo-4) FLIPR/Novostar assay, rB1R cells. The following applies: CHO-K1, 10 μM. In kind it is cell-based. The gist of the method:
as §1

Setting [3] is: CHO-K1, read-out: % Inhibition (h-B1R) at 10 μM.
[4] abbreviates: read-out: % Inhibition (r-B1R) at 10 μM.
Setting [5] is: CHO-K1, read-out: % inhibition (human B1R) at 10 μM.
The mark [6] stands for this setting: read-out: % inhibition (rat B1R) at 10 μM.

Read-outs that look alike come from different tables or passages of the source.

Turning to `CN(C(=O)c1ccc2c(c1)C(NC(=O)c1ccccc1Cl)CC2(C)C)C1CCN(c2ccncc2)CC1` (stereo not shown) [CC_H-23, 3-[(2-Chloro-benzoyl)amino]-N,1,1-trimethyl-N-(1-pyridin-4-yl-piperidin-4-yl)-2,3-dihydro-indene-5-carboxylic acid amide], the values for the inhibition at 10 µM in experiment [1] (setting [3]) and in experiment [2] (setting [4]) were 99% and 104%, respectively.

For the compound `CC(C)N(C(=O)c1ccccc1Cl)[C@@H]1CCc2ccc(C(=O)N(C)C3CCN(c4ccncc4)CC3)cc21` [Example H-150, (3R)-3-[(2-Chloro-benzoyl)-isopropyl-amino]-N-methyl-N-(1-pyridin-4-yl-piperidin-4-yl)-2,3-dihydro-1H-indene-5-carboxylic acid amide], the inhibition at 10 µM in experiment [1] (setting [5]) was 89%; in experiment [2] (setting [6]), 98%.

For the compound `CN1CCN(C(=O)CN2CCC(N(C)C(=O)c3ccc4c(c3)[C@H](NC(=O)c3ccccc3Cl)CC4)CC2)CC1` [Example H-138, (3R)-3-[(2-Chloro-benzoyl)amino]-N-methyl-N-[1-[2-(4-methyl-piperazin-l-yl)-2-oxo-ethyl]-piperidin-4-yl]-2,3-dihydro-1H-indene-5-carboxylic acid amide], the inhibition at 10 µM stood at 91% in experiment [1] (setting [5]) and 41% in experiment [2] (setting [6]).

Consider `CN(C(=O)c1ccc2c(c1)[C@H](NC(=O)c1cnccc1C(F)(F)F)CC2)C1CCN(c2ccncc2)CC1` [Example H-36, N-[(1R)-6-[Methyl-(1-pyridin-4-yl-piperidin-4-yl)-carbamoyl]-2,3-dihydro-1H-inden-1-yl]-4-(trifluoromethyl)-pyridine-3-carboxylic acid amide], for which the inhibition at 10 µM worked out at 100% in experiment [1] (setting [5]) and 105% in experiment [2] (setting [6]).

For `CN(C(=O)c1ccc2c(c1)[C@H](NC(=O)CC(F)(F)F)CC2)C1CCN(c2ccncc2)CC1` [Example H-63, (3R)-N-Methyl-N-(1-pyridin-4-yl-piperidin-4-yl)-3-(3,3,3-trifluoro-propanoylamino)-2,3-dihydro-1H-indene-5-carboxylic acid amide], the inhibition at 10 µM in experiment [1] (setting [5]) is 100%; in experiment [2] (setting [6]), 96%.

Turning to `CN(C(=O)c1ccc2c(c1)C(NC(=O)C1CCCCC1)CCO2)C1CCN(c2ccncc2)CC1` (stereo not shown) [CC_H-38, 4-(Cyclohexanecarbonylamino)-N-methyl-N-(1-pyridin-4-yl-piperidin-4-yl)-3,4-dihydro-2H-chromene-6-carboxylic acid amide], the inhibition at 10 µM was 99% in experiment [1] (setting [3]) and 104% in experiment [2] (setting [4]).

Take `CN(C(=O)c1ccc2c(c1)C(N(C(=O)c1ccccc1Cl)C(C)(C)C)CC2)C1CCN(c2ccncc2)CC1` (stereo not shown) [Example H-110, 3-[tert-Butyl-(2-chloro-benzoyl)-amino]-N-methyl-N-(1-pyridin-4-yl-piperidin-4-yl)-2,3-dihydro-1H-indene-5-carboxylic acid amide]: the inhibition at 10 µM in experiment [1] (setting [5]) worked out at 23%; in experiment [2] (setting [6]), 26%.

`CN(C(=O)c1ccc2c(c1)[C@H](N1Cc3cccc(Cl)c3C1=O)CC2)C1CCN(c2ccncc2)CC1` [Example H-12, (3R)-3-(4-Chloro-3-oxo-1,2-dihydro-isoindol-2-yl)-N-methyl-N-(1-pyridin-4-yl-piperidin-4-yl)-2,3-dihydro-1H-indene-5-carboxylic acid amide]: the inhibition at 10 µM in experiment [1] (setting [5]) and in experiment [2] (setting [6]) was 100% each time.

Consider `Cc1cc(N2CC(N(C)C(=O)c3ccc4c(c3)[C@H](N3Cc5cccc(Cl)c5C3=O)CC4)C2)ccn1` [Example H-161, (3R)-3-(4-Chloro-3-oxo-1,2-dihydro-isoindol-2-yl)-N-methyl-N-[1-(2-methyl-pyridin-4-yl)-azetidin-3-yl]-2,3-dihydro-1H-indene-5-carboxylic acid amide], for which the values for the inhibition at 10 µM in experiment [1] (setting [5]) and in experiment [2] (setting [6]) were 99% and 111%, respectively.

Take `CN(C(=O)c1ccc2c(c1)[C@H](NS(=O)(=O)c1ccccc1)CC2)C1CCN(c2ccncc2)CC1` [Example H-74, (3R)-3-(Benzenesulfonamido)-N-methyl-N-(1-pyridin-4-yl-piperidin-4-yl)-2,3-dihydro-1H-indene-5-carboxylic acid amide]: the values for the inhibition at 10 µM in experiment [1] (setting [5]) and in experiment [2] (setting [6]) were 100% and 104%, respectively.

Turning to `CN(CCC1CCN(c2ccncc2)CC1)C(=O)c1ccc2c(c1)[C@H](NC(=O)c1ccccc1Cl)CC2` [Example H-66, (3R)-3-[(2-Chloro-benzoyl)amino]-N-methyl-N-[2-(1-pyridin-4-yl-piperidin-4-yl)-ethyl]-2,3-dihydro-1H-indene-5-carboxylic acid amide], the inhibition at 10 µM in experiment [1] (setting [5]) turned out to be 93%; in experiment [2] (setting [6]) it was 99%.

With `CN(C(=O)c1ccc2c(c1)[C@H](NC(=O)c1cccc3ccccc13)CC2)C1CCN(c2ccncc2)CC1` [Example H-73, N-[(1R)-6-[Methyl-(1-pyridin-4-yl-piperidin-4-yl)-carbamoyl]-2,3-dihydro-1H-Inden-1-yl]-naphthalene-1-carboxylic acid amide], the inhibition at 10 µM in experiment [1] (setting [5]) turned out to be 100%; in experiment [2] (setting [6]), 104%.

With `Cc1cc(N2CCC(N(C)C(=O)c3ccc4c(c3)[C@H](N(C)C(=O)c3cccnc3C(F)(F)F)CC4)CC2)nc(C)n1` [Example H-171, N-[(1R)-6-[[1-(2,6-Dimethyl-pyrimidin-4-yl)-piperidin-4-yl]-methyl-carbamoyl]-2,3-dihydro-1H-inden-1-yl]-N-methyl-2-(trifluoromethyl)pyridine-3-carboxylic acid amide], the inhibition at 10 µM in experiment [1] (setting [5]) is 100%; in experiment [2] (setting [6]) it was 104%.

`Cc1cc(N2CCC(CCNC(=O)c3ccc4c(c3)[C@H](NC(=O)c3ccccc3Cl)CC4)CC2)ccn1` [Example H-56, (3R)-3-[(2-Chloro-benzoyl)amino]-N-[2-[1-(2-methyl-pyridin-4-yl)-piperidin-4-yl]-ethyl]-2,3-dihydro-1H-indene-5-carboxylic acid amide]: the inhibition at 10 µM in experiment [1] (setting [5]) is 99%; in experiment [2] (setting [6]), 102%.

As to `CN(C(=O)c1ccc2c(c1)[C@H](NC(=O)c1ccccc1Cl)CC2)C1CCN(c2nccn2C)CC1` [Example H-180, (3R)-3-[(2-Chloro-benzoyl)amino]-N-methyl-N-[1-(1-methyl-1H-imidazol-2-yl)-piperidin-4-yl]-2,3-dihydro-1H-indene-5-carboxylic acid amide], the values for the inhibition at 10 µM in experiment [1] (setting [5]) and in experiment [2] (setting [6]) were 89% and 104%, respectively.

As for `CN(C)c1ccc(N2CCC(N(C)C(=O)c3ccc4c(c3)[C@H](NC(=O)c3ccccc3Cl)CC4)CC2)cn1` [Example H-113, (3R)-3-[(2-Chloro-benzoyl)amino]-N-[1-(6-dimethylamino-pyridin-3-yl)-piperidin-4-yl]-N-methyl-2,3-dihydro-1H-indene-5-carboxylic acid amide], the results for the inhibition at 10 µM in experiment [1] (setting [5]) and in experiment [2] (setting [6]) were 98% and 100%, respectively.

Regarding `COc1ncccc1C(=O)N[C@@H]1CCc2ccc(C(=O)N(C)C3CCN(c4ccncc4)CC3)cc21` [Example H-41, 2-Methoxy-N-[(1R)-6-[methyl-(1-pyridin-yl-piperidin-4yl)-carbamoyl]-2,3-dihydro-1H-inden-1-yl]-pyridine-3-carboxylic acid amide], the inhibition at 10 µM came to 100% in experiment [1] (setting [5]) and 98% in experiment [2] (setting [6]).

Take `CN(C(=O)c1ccc2c(c1)C(N(C)C(=O)c1cnccc1C(F)(F)F)CC2)C1CCN(c2ccncc2)CC1` (stereo not shown) [CC_H-32, N-Methyl-N-[6-[methyl-(1-pyridin-4-yl-piperidin-4-yl)-carbamoyl]-2,3-dihydro-1H-inden-1-yl]-4-(trifluoromethyl)-pyridine-3-carboxylic acid amide]: the values for the inhibition at 10 µM in experiment [1] (setting [3]) and in experiment [2] (setting [4]) were 97% and 105%, respectively.

Consider `CN(C(=O)N(C)C1CCc2ccc(C(=O)N(C)C3CCN(c4ccncc4)CC3)cc21)c1ccccc1Cl` (stereo not shown) [CC_H-51, 3-[[(2-Chlorophenyl)-methyl-carbamoyl]-methyl-amino]-N-methyl-N-(1-pyridin-4-yl-piperidin-4-yl)-2,3-dihydro-1H-indene-5-carboxylic acid amide], for which the inhibition at 10 µM stood at 99% in experiment [1] (setting [3]) and 90% in experiment [2] (setting [4]).

As for `CN1CCC(N2CCC(N(C)C(=O)c3ccc4c(c3)[C@H](NC(=O)c3ccccc3Cl)CC4)CC2)CC1` [Example H-40, (3R)-3-[(2-Chloro-benzoyl)amino]-N-methyl-N-[1-(1-methyl-piperidin-4-yl)-piperidin-4-yl]-2,3-dihydro-1H-indene-5-carboxylic acid amide], the inhibition at 10 µM in experiment [1] (setting [5]) worked out at 52%; in experiment [2] (setting [6]), 73%.
